Experimental data taken from ChEMBL document CHEMBL2417463, “Synthesis and identification of new flavonoids targeting liver X receptor β involved pathway as potential facilitators of Aβ clearance with reduced lipid accumulation” (J Med Chem, 2013).
Activity calls are given as the source filed them. No cut-off for these calls is given here.

Key:
Type in all cases: cell-based
[1] = molecular target: T1, Oxysterols receptor LXR-beta (Homo sapiens) (UniProt P55055); test: Agonist activity at human LXRbeta transfected in HEK293 cells at 0.1 uM after 24 hrs by luciferase reporter gene assay relative to vehicle-treated control
T1 sequence (whole entry): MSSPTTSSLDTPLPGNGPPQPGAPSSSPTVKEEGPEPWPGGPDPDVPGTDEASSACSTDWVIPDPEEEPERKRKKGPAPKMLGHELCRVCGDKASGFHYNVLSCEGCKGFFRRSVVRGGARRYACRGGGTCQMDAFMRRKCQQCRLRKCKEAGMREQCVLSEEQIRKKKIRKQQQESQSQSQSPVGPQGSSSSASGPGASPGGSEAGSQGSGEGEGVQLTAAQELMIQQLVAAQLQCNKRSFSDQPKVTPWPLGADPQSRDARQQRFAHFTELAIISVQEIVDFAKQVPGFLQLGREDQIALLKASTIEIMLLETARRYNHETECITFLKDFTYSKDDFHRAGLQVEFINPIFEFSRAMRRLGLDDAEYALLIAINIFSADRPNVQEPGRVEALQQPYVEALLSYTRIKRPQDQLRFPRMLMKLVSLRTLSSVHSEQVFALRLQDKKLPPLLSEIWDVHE

[2] = molecular target: T2, Oxysterols receptor LXR-alpha (Homo sapiens) (UniProt Q13133); test: Agonist activity at human LXRalpha transfected in HEK293 cells at 1 uM after 24 hrs by luciferase reporter gene assay relative to vehicle-treated control
T2 sequence (whole entry): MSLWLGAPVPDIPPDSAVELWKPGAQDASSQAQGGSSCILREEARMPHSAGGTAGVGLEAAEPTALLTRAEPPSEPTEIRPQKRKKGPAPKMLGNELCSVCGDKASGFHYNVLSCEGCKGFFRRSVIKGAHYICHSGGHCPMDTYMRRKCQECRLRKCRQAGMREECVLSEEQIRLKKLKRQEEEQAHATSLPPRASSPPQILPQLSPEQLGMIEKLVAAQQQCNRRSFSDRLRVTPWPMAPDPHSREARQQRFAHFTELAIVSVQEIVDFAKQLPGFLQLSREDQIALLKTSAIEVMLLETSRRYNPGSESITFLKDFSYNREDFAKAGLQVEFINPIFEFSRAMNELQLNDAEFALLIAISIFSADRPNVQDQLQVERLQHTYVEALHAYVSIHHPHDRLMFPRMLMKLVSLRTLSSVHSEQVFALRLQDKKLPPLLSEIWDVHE

[3] = molecular target: T2, Oxysterols receptor LXR-alpha (Homo sapiens); test: Agonist activity at human LXRalpha transfected in HEK293 cells at 0.1 uM after 24 hrs by luciferase reporter gene assay relative to vehicle-treated control
[4] = molecular target: T3, Oxysterols receptor LXR-beta (Mus musculus) (UniProt Q60644); test: Agonist activity at LXRbeta in mouse RAW264.7 cells assessed as induction of ABCA1 promoter activation at 1 uM after 24 hrs by Dual-Glo luciferase reporter gene assay relative to vehicle-treated control
T3 sequence (whole entry): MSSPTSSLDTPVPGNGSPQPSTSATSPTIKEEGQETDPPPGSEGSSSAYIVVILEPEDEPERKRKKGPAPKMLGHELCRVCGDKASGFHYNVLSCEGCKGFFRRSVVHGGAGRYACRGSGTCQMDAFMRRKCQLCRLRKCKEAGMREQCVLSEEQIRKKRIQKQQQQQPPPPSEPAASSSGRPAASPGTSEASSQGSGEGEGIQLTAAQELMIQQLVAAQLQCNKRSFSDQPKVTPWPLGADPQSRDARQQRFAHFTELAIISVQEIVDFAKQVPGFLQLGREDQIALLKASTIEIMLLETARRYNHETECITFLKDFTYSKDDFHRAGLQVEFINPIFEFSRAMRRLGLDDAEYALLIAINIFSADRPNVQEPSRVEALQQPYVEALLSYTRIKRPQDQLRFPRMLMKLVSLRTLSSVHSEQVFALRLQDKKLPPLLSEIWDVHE

HEK293 = test: Cytotoxicity against HEK293 cells assessed as inhibition of cell viability at 50 uM after 48 hrs by SRB assay relative to vehicle-treated control; details: human, hek293, 48 h
[5] = Cytotoxicity against human HepG2 cells assessed as inhibition of cell viability at 50 uM after 48 hrs by SRB assay relative to vehicle-treated control; details: HepG2 cells, read-out: Activity
BV-2 = test: Cytotoxicity against mouse BV2 cells assessed as inhibition of cell viability at 50 uM after 48 hrs by SRB assay relative to vehicle-treated control; details: bv-2, 48 h
RAW264.7 = test: Cytotoxicity against mouse RAW264.7 cells assessed as inhibition of cell viability at 50 uM after 48 hrs by SRB assay relative to vehicle-treated control; details: raw264.7, 48 h
HepG2 [6] = test: Induction of cytoplasmic lipid accumulation in human HepG2 cells at 10 uM after 4 days by oil red O staining-based light microscopic analysis; details: hepg2, 96 h
HepG2 [7] = test: Induction of intracellular triglyceride accumulation in human HepG2 cells at 10 uM after 4 days relative to vehicle-treated control; details: hepg2, 96 h
HepG2 [8] = test: Induction of intracellular triglyceride accumulation in human HepG2 cells at 1 uM after 4 days relative to vehicle-treated control; details: hepg2, 96 h
[9] = molecular target: T3, Oxysterols receptor LXR-beta (Mus musculus); test: Agonist activity at LXRbeta in mouse BV2 cells assessed as degradation of intracellular soluble amyloid beta42 at 1 uM preincubated for 18 hrs followed by soluble amyloid beta42 addition measured after 24 hrs by ELISA relative to vehicle-treated control; details: BV-2
[10] = molecular target: T3, Oxysterols receptor LXR-beta (Mus musculus); test: Agonist activity at LXRbeta in mouse BV2 cells assessed as upregulation of apoE protein expression at 1 uM after 48 hrs by Western blot analysis relative to vehicle-treated control; details: BV-2
[11] = molecular target: T3, Oxysterols receptor LXR-beta (Mus musculus); test: Agonist activity at LXRbeta in mouse BV2 cells assessed as upregulation of apoE protein expression at 0.1 uM after 48 hrs by Western blot analysis relative to vehicle-treated control; details: BV-2
[12] = molecular target: T3, Oxysterols receptor LXR-beta (Mus musculus); test: Agonist activity at LXRbeta in mouse BV2 cells assessed as upregulation of ABCA1 protein expression after 12 to 48 hrs by Western blot analysis; details: BV-2
[13] = molecular target: T3, Oxysterols receptor LXR-beta (Mus musculus); test: Agonist activity at LXRbeta in mouse BV2 cells assessed as upregulation of ABCA1 protein expression at 1 uM after 12 to 48 hrs by Western blot analysis; details: BV-2
[14] = molecular target: T3, Oxysterols receptor LXR-beta (Mus musculus); test: Agonist activity at LXRbeta in mouse RAW264.7 cells assessed as upregulation of ABCA1 protein expression after 18 to 48 hrs by Western blot analysis
[15] = molecular target: T3, Oxysterols receptor LXR-beta (Mus musculus); test: Agonist activity at LXRbeta in mouse RAW264.7 cells assessed as upregulation of ABCA1 protein expression at 1 uM after 18 to 48 hrs by Western blot analysis
[16] = molecular target: T1, Oxysterols receptor LXR-beta (Homo sapiens); test: Agonist activity at human LXRbeta transfected in HEK293 cells at 1 uM after 24 hrs by luciferase reporter gene assay relative to vehicle-treated control

O=c1cc(-c2c[nH]c3ccccc23)oc2cc(O)ccc12
fold change (FC) [1]: 1.19
fold change (FC) [2]: 1.02
fold change (FC) [3]: 1.32
fold change (FC) [4]: 1.9
Activity (HEK293): Non-toxic
inhibition at 48 h, 50 µM [5]: 45%
Activity (BV-2): Non-toxic
Activity (RAW264.7): Non-toxic
Activity (HepG2 [6]): Toxic
Activity (HepG2 [7]): 18%
Activity (HepG2 [8]): -6%
Activity [9]: 38%
fold change (FC) [10]: 1.4
fold change (FC) [11]: 1.1
Activity [12]: Dose-dependent effect
Activity [13]: Active
Activity [14]: Dose-dependent effect
Activity [15]: Active
fold change (FC) [16]: 1.76
